Source: patent US12435061B2 (priority 2020, dated 2025)
Structures can show the parent of a compound that is named as a salt. Where two headings read alike, the source gives them in different places.

Biological target: hTRPV3 (Homo sapiens (Human), UniProt Q8NET8)
Assay: Whole-cell patch clamp, hTRPV3 Phase 1 / Phase 2 currents
Type: cell-based
How it was run: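 Currents are activated by 20 μM 2-APB or by perfusate at 28 °C or warmer, in Ringer's solution, and quantified at ±80 mV.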

[1] = Phase 1 current, human TRPV3, read-out: hTRPV3 (nM) Phase 1
[2] = Phase 1 current, inward, whole-cell patch clamp, read-out: hTRPV3 Patch P1 Inwd
[3] = Phase 1 current, read-out: hTRPV3 (nM) (Phase 1)
[4] = Phase 2 current, inward, whole-cell patch clamp, read-out: hTRPV3 Patch P2 Inwd
[5] = Phase 2 current, read-out: hTRPV3 (nM) (Phase 2)

Sequence of hTRPV3 (Q8NET8 whole entry): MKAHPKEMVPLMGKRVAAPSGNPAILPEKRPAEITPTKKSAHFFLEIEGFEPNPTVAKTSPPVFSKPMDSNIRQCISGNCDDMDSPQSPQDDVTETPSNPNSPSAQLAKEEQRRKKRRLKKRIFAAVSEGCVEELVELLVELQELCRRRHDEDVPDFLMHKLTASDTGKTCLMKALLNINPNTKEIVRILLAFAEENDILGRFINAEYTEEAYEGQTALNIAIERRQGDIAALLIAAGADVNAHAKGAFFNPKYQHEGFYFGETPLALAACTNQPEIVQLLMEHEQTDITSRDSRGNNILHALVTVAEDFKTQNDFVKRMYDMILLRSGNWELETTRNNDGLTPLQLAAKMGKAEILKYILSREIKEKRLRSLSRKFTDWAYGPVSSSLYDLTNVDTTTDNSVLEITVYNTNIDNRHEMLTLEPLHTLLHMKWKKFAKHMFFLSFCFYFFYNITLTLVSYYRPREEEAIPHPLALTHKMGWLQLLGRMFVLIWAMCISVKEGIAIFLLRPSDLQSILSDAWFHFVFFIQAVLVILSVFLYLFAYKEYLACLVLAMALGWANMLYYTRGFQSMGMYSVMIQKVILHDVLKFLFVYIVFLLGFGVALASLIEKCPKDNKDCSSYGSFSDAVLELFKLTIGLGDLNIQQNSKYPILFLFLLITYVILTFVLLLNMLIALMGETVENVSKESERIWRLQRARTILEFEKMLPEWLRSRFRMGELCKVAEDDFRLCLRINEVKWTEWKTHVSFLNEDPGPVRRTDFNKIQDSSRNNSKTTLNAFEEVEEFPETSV

Structure (SMILES)	IC50 [1] [nM]	IC50 [2] [nM]	IC50 [3] [nM]	other results
Nc1cc(-c2ccccc2Cl)ccc1N1CC[C@@H](Oc2ccc(C(F)(F)F)cn2)C1 [Compound 1-116]	–	–	–	hTRPV3 (nM) (Phase 1) (Phase 1 current): Agonist/ Antagonist (Phase 1) Agonist/ Antagonist (Phase 2); hTRPV3 (nM) (Phase 2) (Phase 2 current): Agonist/ Antagonist (Phase 1) Agonist/ Antagonist (Phase 2)
COc1ccnc(C(=O)N2CCC(c3ccc(-c4ccccc4C4CC4)cc3CO)C2)c1 (stereo not drawn) [Compound 2-75, (3-(2′-cyclopropyl-3-(hydroxymethyl)biphenyl-4-yl)pyrrolidin-1-yl)(4-methoxypyridin-2-yl)methanone]	215	100 to 1000	–	–
CCc1ccccc1Oc1ccc(N2CC[C@H](Oc3ccc(C#N)cn3)C2)c(CO)c1 [Compound 1-352]	–	100 to 1000	974	–
COc1ccccc1Oc1ccc(N2CC[C@H](Oc3ccc(C)cn3)C2)c(CO)c1 [Compound 1-345, (S)-(5-(2-methoxyphenoxy)-2-(3-(5-methylpyridin-2-yloxy)pyrrolidin-1-yl)phenyl)methanol]	–	> 1000	~2450	–
COc1ccccc1-c1ccc(N2CC[C@H](Oc3ccc(C)cn3)C2)c(CO)n1 [Compound 1-191, (S)-(6-(2-methoxyphenyl)-3-(3-(5-methylpyridin-2-yloxy)pyrrolidin-1-yl)pyridin-2-yl)methanol]	–	> 1000	> 3200	–
NC(=O)c1cc(-c2ccccc2)cnc1N1CC[C@@H](Oc2ncccc2Cl)C1 [Compound 1-90, (R)-2-(3-(3-chloropyridin-2-yloxy)pyrrolidin-1-yl)-5-phenylnicotinamide]	–	> 1000	~3000	IC50 [4]: > 1000 nM; IC50 [5]: 1600 nM
NC(=O)c1cc(-c2ccccn2)ccc1N1CC[C@@H](Oc2ncccc2Cl)C1 [Compound 1-85, (R)-2-(3-(3-chloropyridin-2-yloxy)pyrrolidin-1-yl)-5-(pyridin-2-yl)benzamide]	–	> 1000	3480	–
CCc1ccccc1-c1ccc(N2CC[C@H](Oc3ccc(F)cn3)C2)c(CO)n1 [Compound 1-208]	–	> 1000	–	IC50 [4]: 100 to 1000 nM
Cc1ccccc1Oc1ccc(C2CCN(C(=O)c3ncccc3Cl)C2)c(CO)c1 (stereo not drawn) [Compound 2-84, (3-chloropyridin-2-yl)(3-(2-(hydroxymethyl)-4-(o-tolyloxy)phenyl)pyrrolidin-1-yl)methanone]	932	–	–	–
CC(C)c1ccccc1Oc1ccc(C2CCN(Cc3cccc(Cl)n3)C2)c(CO)c1 (stereo not drawn) [Compound 2-96, (2-(1-((6-chloropyridin-2-yl)methyl)pyrrolidin-3-yl)-5-(2-isopropylphenoxy)phenyl)methanol hydrochloride]	246	100 to 1000	–	–
N#Cc1ccc(N2CC[C@H](Oc3ccc(C(F)(F)F)cn3)C2)c(C(N)=O)c1 [Compound 1-23, (S)-5-cyano-2-(3-(5-(trifluoromethyl)pyridin-2-yloxy)pyrrolidin-1-yl)benzamide]	–	> 1000	–	–
NC(=O)c1cc(-c2ccncc2)ccc1N1CC[C@@H](Oc2ccccn2)C1 [Compound 1-79, (R)-2-(3-(pyridin-2-yloxy)pyrrolidin-1-yl)-5-(pyridin-4-yl)benzamide]	–	> 1000	> 3200	IC50 [4]: > 1000 nM; IC50 [5]: > 3200 nM
COCc1ccccc1Oc1ccc(N2CC[C@H](Oc3ccc(F)cn3)C2)c(CCO)c1 [Compound 1-341, (S)-2-(2-(3-(5-fluoropyridin-2-yloxy)pyrrolidin-1-yl)-5-(2-(methoxymethyl)phenoxy)phenyl)ethanol]	–	100 to 1000	877	IC50 [4]: 100 to 1000 nM; IC50 [5]: 748 nM
COC(=O)c1cc(-c2ccccc2C(C)C)ccc1C1CCN(C(=O)C(F)(F)F)C1 (stereo not drawn) [Compound 2-120]	> 3200	–	–	–
N#Cc1cc(Br)ccc1N1CC[C@H](Oc2ncccc2Cl)C1 [Compound 1-305]	–	> 1000	–	–
Cc1cccc(C(O)c2ccc(C3CCN(C(=O)c4ncccc4Cl)C3)c(CO)c2)c1 (single isomer, unassigned) [Compound 2-8]	> 3200	> 1000	–	–
COc1ccccc1N1CCC(Nc2ncc(C(F)(F)F)cc2Cl)C1 (stereo not drawn) [Compound 1-370, 3-chloro-N-(1-(2-methoxyphenyl)pyrrolidin-3-yl)-5-(trifluoromethyl)pyridin-2-amine]	–	> 1000	–	–
NC(=O)c1ccc(O[C@H]2CCN(c3ccc(-c4ccccc4)cc3CO)C2)nc1 [Compound 1-144, (S)-6-(1-(3-(hydroxymethyl)biphenyl-4-yl)pyrrolidin-3-yloxy)nicotinamide]	–	> 1000	1280	IC50 [4]: > 1000 nM; IC50 [5]: 4220 nM
Cc1ccc(O[C@H]2CCN(c3ccc(-c4ccccc4C#N)nc3CO)C2)nc1 [Compound 1-190, (S)-2-(6-(hydroxymethyl)-5-(3-(5-methylpyridin-2-yloxy)pyrrolidin-1-yl)pyridin-2-yl)benzonitrile]	–	> 1000	> 3200	IC50 [4]: > 1000 nM; IC50 [5]: > 3200 nM
COCc1ccc(C(=O)c2ccc(N3CC[C@H](Oc4ncccc4Cl)C3)c(CO)c2)cc1 [Compound 1-286]	–	100 to 1000	607	–
COc1ccccc1Oc1ccc(N2CC[C@H](Oc3ccccn3)C2)c(CO)c1 [Compound 1-339, (S)-(5-(2-methoxyphenoxy)-2-(3-(pyridin-2-yloxy)pyrrolidin-1-yl)phenyl)methanol]	–	100 to 1000	521	–
CCc1cncnc1Oc1ccc(C2CCN(C(=O)c3ccc(F)cn3)C2)c(CO)c1 (stereo not drawn) [Compound 2-24, (3-(4-(5-ethylpyrimidin-4-yloxy)-2-(hydroxymethyl)phenyl)pyrrolidin-1-yl)(5-fluoropyridin-2-yl)methanone]	> 3200	> 1000	–	–
Cc1cc(C(=O)N2CCC(c3ccc(-c4ccccc4C4CC4)cc3CO)C2)no1 (stereo not drawn) [Compound 2-123]	62.9	–	–	–
CC(C)(C)OC(=O)c1ccccc1N1CC[C@@H](Oc2ccc(C(F)(F)F)cn2)C1 [Compound 1-55, (R)-tert-butyl 2-(3-(5-(trifluoromethyl)pyridin-2-yloxy)pyrrolidin-1-yl)benzoate]	–	> 1000	–	IC50 [4]: > 1000 nM
O=C(c1cc(Cl)ccn1)N1CCC(c2ccc(-c3ccccc3C3CC3)cc2CO)C1 (stereo not drawn) [Compound 2-60, (4-chloropyridin-2-yl)(3-(2′-cyclopropyl-3-(hydroxymethyl)biphenyl-4-yl)pyrrolidin-1-yl)methanone]	26.5	10 to 100	–	–
CCc1ccccc1Oc1ccc(C2CCN(C(=O)c3cccc(C)n3)C2)c(C(N)=O)c1 (stereo not drawn) [Compound 2-40, 5-(2-ethylphenoxy)-2-(1-(6-methylpicolinoyl)pyrrolidin-3-yl)benzamide]	4900	> 1000	–	–
CCc1ccccc1-c1ccc(N2CC[C@H](Oc3ccc(C(F)(F)F)cn3)C2)c(CO)n1 [Compound 1-196, (S)-(6-(2-ethylphenyl)-3-(3-(5-(trifluoromethyl)pyridin-2-yloxy)pyrrolidin-1-yl)pyridin-2-yl)methanol]	–	> 1000	> 3200	–
CC(=O)NCc1cc(-c2ccccc2Cl)ccc1N1CC[C@H](Oc2ccc(C(F)(F)F)cn2)C1 [Compound 1-127, (S)—N-((2′-chloro-4-(3-(5-(trifluoromethyl)pyridin-2-yloxy)pyrrolidin-1-yl)biphenyl-3-yl)methyl)acetamide]	–	–	–	IC50 [4]: > 1000 nM; IC50 [5]: 1140 nM
